In ChEMBL document CHEMBL5528015, “Structure-based design of SARS-CoV-2 papain-like protease inhibitors” (Eur J Med Chem, 2024):
Active and inactive are the calls of the source. No cut-off for these calls is given here.

How the values were obtained:
[1] = target: Replicase polyprotein 1ab (Severe acute respiratory syndrome coronavirus 2, UniProt P0DTD1); assay: biochemical
[2] = Metabolic stability in mouse liver microsomes assessed as intrinsic clearance at 1 uM measured upto 60 mins in presence of NADPH regenerating system by LC-MS/MS analysis; assay type: ADME, Microsome; conditions: read-out: CLH
[3] = mouse, microsomes, 1 h, 1 µM
[4] = Cytotoxicity against African green monkey Vero E6 cells incubated for 48 hrs by neutral red uptake assay; assay type: toxicity, cell-based, Vero C1008; conditions: chlorocebus sabaeus
in vitro = conditions: mouse, liver microsomes
[5] = target: Replicase polyprotein 1ab (Severe acute respiratory syndrome coronavirus 2) (UniProt P0DTD1); conditions: BetaCoV/Wuhan/WIV04/2019, dose 40.0 µM, time 30.0 min

Q: With `Cc1ccc(OCCN)cc1C(=O)N[C@H](C)c1cccc(-c2ccc3c(c2)CCO3)c1` as the compound, how does the IC50 [1] read?
A: The IC50 was 1.08 µM.

Q: With `Cc1ccc(OCCN)cc1C(=O)N[C@H](C)c1cccc(-c2cnc(N(C)C)nc2)c1` as the compound, how does the IC50 [1] read?
A: Its IC50 is > 20 µM.

Q: With `Cc1ccc(OCCN)cc1C(=O)N[C@H](C)c1cccc(-c2cnn(C)c2)c1` as the compound, how does the IC50 [1] read?
A: Its IC50 is 0.96 µM.

Q: Which microsomal CLint at 1 µM [2] does the source give for `Cc1ccc(OCCN)cc1C(=O)N[C@H](C)c1cccc2ccccc12` here?
A: Its microsomal CLint at 1 µM is < 9.6 µL/min/mg.

Q: And the t1/2 [3]?
A: Its t1/2 is > 2.42 h.

Q: For `Cc1ccc(OCCN)cc1C(=O)N[C@H](C)c1cccc(-c2ccc(C#N)s2)c1`, which CC50 at 48 h [4] is on record?
A: Its CC50 at 48 h is 15 µM.

Q: For `C[C@H](c1cccc(-c2cccs2)c1)N(C)Cc1c[nH]c2ccc(F)cc12`, which IC50 [1] is on record?
A: Its IC50 is 2.66 µM.

Q: For `Cc1ccc(OCCN)cc1C(=O)N[C@H](C)c1cccc(-c2cnn(Cc3ccccc3)c2)c1`, which IC50 [1] is on record?
A: Its IC50 is 1.03 µM.

Q: Which IC50 [1] does the source give for `Cc1ccc(OCCN)cc1C(=O)N[C@H](C)c1cccc(-c2c[nH]nc2C)c1` here?
A: The IC50 was 1.96 µM.

Q: For `C[C@H](c1cccc2ccccc12)N(C)Cc1ccc2[nH]ncc2c1`, which CC50 at 48 h [4] is on record?
A: The CC50 at 48 h was 35.5 µM.

Q: With `Cc1ccc(OCCN)cc1C(=O)N[C@H](C)c1cccc(-c2c(C)noc2C)c1` as the compound, how does the IC50 [1] read?
A: The IC50 was 1.48 µM.

Q: For `C[C@H](c1cccc2ccccc12)N(C)Cc1c[nH]c2ccccc12`, which CC50 at 48 h [4] is on record?
A: The CC50 at 48 h was 24.7 µM.

Q: For `Cc1ccc(O)cc1CN(C)[C@H](C)c1cccc2ccccc12`, which microsomal CLint at 1 µM [2] is on record?
A: The microsomal CLint at 1 µM was 2490 µL/min/mg.

Q: What about the CC50 at 48 h [4] of the same compound?
A: Its CC50 at 48 h is 14.4 µM.

Q: For `Cc1ccc(OCCN)cc1C(=O)N[C@H](C)c1cccc(-c2ccc(C#N)cc2)c1`, which IC50 [1] is on record?
A: Its IC50 is 0.89 µM.

Q: Which IC50 [1] does the source give for `Cc1ccc(OCCN)cc1C(=O)N[C@H](C)c1cccc(-c2ccc(F)cc2)c1` here?
A: Its IC50 is 1.22 µM.

Q: What does the source list for `C[C@H](c1cccc2ccccc12)N(C)Cc1ccc(O)cc1`?
A: microsomal CLint at 1 µM [2]: 779 µL/min/mg; half-life at 1 h, 1 µM (in vitro): 1.8 min; CC50 at 48 h [4]: 23.7 µM

Q: For `Cc1ccc(OCCN)cc1C(=O)N[C@H](C)c1cccc(-c2ccn[nH]2)c1`, which IC50 [1] is on record?
A: The IC50 was 1.16 µM.

Q: Which IC50 [1] does the source give for `C[C@H](c1cccc(-c2ccc(CN3CCCC3)s2)c1)N(C)Cc1cccc2[nH]ccc12` here?
A: Its IC50 is 3.39 µM.

Q: Which results are given for `Cc1ccc(NC2CNC2)cc1CN(C)[C@H](C)c1cccc2ccccc12`?
A: microsomal CLint at 1 µM [2]: 13.8 µL/min/mg; CC50 at 48 h [4]: 13.7 µM; t1/2 [3]: 1.673 h

Q: Which IC50 [1] does the source give for `C[C@H](c1cccc(-c2cccs2)c1)N(C)Cc1c[nH]c2cc(F)ccc12` here?
A: The IC50 was 2.34 µM.

Q: Which IC50 [1] does the source give for `C[C@H](c1cccc(-c2cccs2)c1)N(C)Cc1ccc(O)cc1O` here?
A: The IC50 was 5.03 µM.

Q: Which CC50 at 48 h [4] does the source give for `COc1cc([N+](=O)[O-])ccc1CN(C)[C@H](C)c1cccc2ccccc12` here?
A: Its CC50 at 48 h is > 100 µM.

Q: What about the Activity [5] of the same compound?
A: Its Activity is “Active”.

Q: For `Cc1ccc(OCCN)cc1C(=O)N[C@H](C)c1cccc(-c2ccc3c(c2)OCCO3)c1`, which IC50 [1] is on record?
A: The IC50 was 0.97 µM.

Q: For `C[C@H](c1cccc2ccccc12)N(C)Cc1c[nH]c2cc(F)ccc12`, which CC50 at 48 h [4] is on record?
A: Its CC50 at 48 h is 31.8 µM.

Q: With `Cc1ccc(OCCN)cc1C(=O)N[C@H](C)c1cccc(-c2ccc(F)cc2F)c1` as the compound, how does the IC50 [1] read?
A: Its IC50 is 1.54 µM.

Q: Which IC50 [1] does the source give for `COc1cc(O)ccc1CN(C)[C@@H](C)c1cccc(-c2ccc(CN3CCCC3)s2)c1` here?
A: Its IC50 is 3 µM.

Q: For `COCCn1cc(-c2cccc([C@@H](C)NC(=O)c3cc(OCCN)ccc3C)c2)cn1`, which IC50 [1] is on record?
A: The IC50 was 1.51 µM.

Q: Which results are given for `C[C@H](c1cccc2ccccc12)N(C)Cc1ccc(O)cc1O`?
A: CC50 at 48 h [4]: 31.5 µM; Activity [5]: Active

Q: For `Cc1ccc(OCCN)cc1C(=O)N[C@H](C)c1cccc(-c2cccs2)c1`, which microsomal CLint at 1 µM [2] is on record?
A: The microsomal CLint at 1 µM was < 9.6 µL/min/mg.

Q: And the CC50 at 48 h [4]?
A: Its CC50 at 48 h is 15.2 µM.

Q: What about the t1/2 [3] of the same compound?
A: Its t1/2 is > 2.42 h.

Q: For `Cc1ccc(OCCN)cc1C(=O)N[C@H](C)c1cccc(-c2cnn(C(F)F)c2)c1`, which IC50 [1] is on record?
A: Its IC50 is 1.14 µM.

Q: For `C[C@H](c1cccc(-c2cccs2)c1)N(C)Cc1ccc2cn[nH]c2c1`, which IC50 [1] is on record?
A: Its IC50 is 2.36 µM.

Q: With `C[C@H](c1cccc2ccccc12)N(C)Cc1c[nH]c2ccc(F)cc12` as the compound, how does the CC50 at 48 h [4] read?
A: Its CC50 at 48 h is 32.5 µM.

Q: Which CC50 at 48 h [4] does the source give for `C[C@H](c1cccc2ccccc12)N(C)Cc1ccc2cn[nH]c2c1` here?
A: Its CC50 at 48 h is 28.3 µM.

Q: With `Cc1ccc(OCCN)cc1C(=O)N[C@H](C)c1cccc(-c2ccn(C)c2C)c1` as the compound, how does the IC50 [1] read?
A: Its IC50 is 3.35 µM.

Q: Which IC50 [1] does the source give for `Cc1ccc(OCCN)cc1C(=O)N[C@H](C)c1cccc(-c2ccc(CNC3CC3)s2)c1` here?
A: Its IC50 is 0.94 µM.

Q: What does the source list for `Cc1ccc(OCCN)cc1C(=O)N[C@H](C)c1cccc(-c2ccc(O)cc2)c1`?
A: microsomal CLint at 1 µM [2]: 24 µL/min/mg; CC50 at 48 h [4]: 45.2 µM; t1/2 [3]: 0.962 h

Q: Which IC50 [1] does the source give for `Cc1ccc(OCCN)cc1C(=O)N[C@H](C)c1cccc(-c2ccnn2C)c1` here?
A: The IC50 was 2.78 µM.

Q: With `Cc1ccc(OCCN)cc1C(=O)N[C@H](C)c1cccc(-c2ccccc2O)c1` as the compound, how does the IC50 [1] read?
A: Its IC50 is 2.25 µM.

Q: With `Cc1ccc(OCCN)cc1C(=O)N[C@H](C)c1cccc(-c2cn[nH]c2)c1` as the compound, how does the IC50 [1] read?
A: Its IC50 is 1.49 µM.

Q: With `C[C@H](c1cccc(-c2ccc(CN3CCCC3)s2)c1)N(C)Cc1ccc2[nH]ncc2c1` as the compound, how does the IC50 [1] read?
A: The IC50 was 7.09 µM.

Q: Which results are given for `Cc1ccc(OCCN)cc1C(=O)N[C@H](C)c1cccc(-c2ccsc2)c1`?
A: microsomal CLint at 1 µM [2]: 11.8 µL/min/mg; CC50 at 48 h [4]: > 30 µM; t1/2 [3]: 1.958 h

Q: For `Cc1ccc(OCCN)cc1C(=O)N[C@H](C)c1cccc(-c2ccoc2)c1`, which microsomal CLint at 1 µM [2] is on record?
A: Its microsomal CLint at 1 µM is 25.7 µL/min/mg.

Q: What about the CC50 at 48 h [4] of the same compound?
A: Its CC50 at 48 h is 103 µM.

Q: And the Activity [5]?
A: Its Activity is “Active”.

Q: What about the t1/2 [3] of the same compound?
A: Its t1/2 is 0.897 h.
